Experimental data: patent US7709523B2, “Alpha-aminoamide derivatives useful as antimigraine agents” (Newron Pharmaceuticals SpA, priority 2003, dated 2010)

System: CBF response evoked by electrical stimulation of the left ophthalmic branch of the trigeminal ganglion
Assay: Inhibition of cerebral blood flow (CBF) increase evoked by electrical stimulation of the trigeminal ganglion in anesthetized rats
Type: in vivo, Male Wistar rats
Conditions: rat, i.v.; for % Inhibition of the CBF response: mean±S.E. of 4/6 rats, versus vehicle
Method: Male Wistar rats (250-350 g) were anesthetized with sodium pentobarbital (50 mg/kg i.p.) dissolved in saline. The trachea and left femoral artery were cannulated for artificial ventilation (55 strokes/min) and for measurement of mean blood pressure (MBP) respectively. The femoral vein was cannulated for the intravenous administration of test agents. Body temperature was maintained at 37-38° C. by automatic control of a heating pad. Animals were placed in a stereotaxic frame and a longitudinal incision was made in the scalp. A burr hole was drilled in the skull and a stainless steel bipolar electrode (Plastic One MS 306) was lowered into left ophthalmic branch of the trigeminal ganglion (3.8 mm […] to bregma, 2.5 mm lateral from the midline and 9.5 mm below the dural surface) and secured with dental cement. Correct placement of the electrode was confirmed by a brief electrical stimulation, which cause movement of the jaw due to activation of the trigeminal fiber. Following removal of the brain, the correct position of the electrode into the fiber, was visually checked at the end of each experiment. A second hole was drilled ipsilateral of the electrode (1.5 mm rostral to bregma, and 1.5 mm lateral from the sagittal suture) and a needle probe (tip diameter 0.8 mm) of a laser doppler flowmeter was fixed pointing with its tip onto a branch of the middle cerebral artery (MCA) and Cerebral Blood Flow (CBF) change recorded on-line by the PeriFlux 4001 Laser Doppler system. Artefacts of the laser Doppler reading during electrical stimulation of the trigeminal ganglion due to muscular movements were prevented by a bolus of i.v. injection of the neuromuscular blocker pancuronium bromide (0.6 mg/kg i.v.). Anesthesia and neuromuscular blockade were maintained all over the experiment with an infusion of sodium pentobarbital and pancuronium (12.5 mg/kg/h+2.4 mg/kg/h, respectively). At the end of the surgery, a pause of thirty minutes was taken in order to stabilize the measured parameters. Rest CBF was increased by electrical stimulation with rectangular pulse of 0.5 msec length, 1-10 Hz, 0.5-1 mA for periods of 30 seconds. After two averaged pre-drug stimulations, vehicle or drugs were administered. The α-aminoamide compounds NW-1015, NW-1029, NW-1039, representative of the invention, and the comparative 2-(4-(2-fluorobenzyloxy)benzylamino)-2-methyl-propanamide (internal code and hereinafter NW1050), 2-(4-(4-fluorobenzyloxy)benzylamino)-2-methyl-propanamide (internal code and hereinafter NW1055, also one of the compounds tested in WO99/26614), 4-(4′-fluorophenoxy)benzaldheyde semicarbazone (hereinafter Co102862, tested in WO00/61188) and vehicle, were administered intravenously after second basal stimulation registering the responses to evoked flow by electrical stimulation at 5, 15, 30 and 60 min after treatment. NW-1015, was administered at the doses of 1, 2 and 5 mg/kg; NW-1029 was administered at the doses of 5 and 10 mg/kg and NW-1039 at the doses of 2 and 5 mg/kg whereas NW-1050, NW-1055 and Co102862 were all administered at the dose of 20 mg/kg. The responses obtained after drug administration were compared to the vehicle group, and were reported as a percentage of the inhibition of the evoked CBF. Data were compared by analysis of covariance (ANCOVA) followed by Dunnet's test. The antimigraine effect of the tested compounds was observed and measured as the percentage of the inhibition after i.v. administration of the above mentioned representative compounds of the CBF evoked in control condition. The data reported in table 1 below show the inhibitory activity of the tested compounds on the CBF response evoked by electrical stimulation of the left ophthalmic branch of the trigeminal ganglion. Results (mean±S.E. of 4/6 rats per group) are expressed as percent of the inhibition on evoked CBF response versus the vehicle.

[1] = dose 20 mg/kg, 5 min after administration
[2] = dose 20 mg/kg, 15 min after administration
[3] = dose 20 mg/kg, 30 min after administration
[4] = dose 20 mg/kg, 60 min after administration
[5] = at the doses tested (1-10 mg/kg), up to 60 min
[6] = dose 2 mg/kg, 5 min after administration
[7] = dose 2 mg/kg, 15 min after administration
[8] = dose 2 mg/kg, 30 min after administration
[9] = dose 2 mg/kg, 60 min after administration
[10] = dose 5 mg/kg, 5 min after administration
[11] = dose 5 mg/kg, 15 min after administration
[12] = dose 5 mg/kg, 30 min after administration
[13] = dose 5 mg/kg, 60 min after administration

SMILES	Effect on the evoked CBF compared to the vehicle group (in words) (20 mg/kg)	% Inhibition of the CBF response [1]	% Inhibition of the CBF response [2]	% Inhibition of the CBF response [3]	% Inhibition of the CBF response [4]	Effect on the evoked CBF compared to the vehicle group (in words) [5]	% Inhibition of the CBF response [6]	% Inhibition of the CBF response [7]	% Inhibition of the CBF response [8]	% Inhibition of the CBF response [9]	% Inhibition of the CBF response [10]	% Inhibition of the CBF response [11]	% Inhibition of the CBF response [12]	% Inhibition of the CBF response [13]	also measured
NC(=O)NN=Cc1ccc(Oc2ccc(F)cc2)cc1 [Co102862, 4-(4′-fluorophenoxy)benzaldheyde semicarbazone, reference compound]	completely inactive	0.9 ± 0.1%	1.1 ± 0.3%	1.2 ± 0.2%	0.7 ± 0.1%	–	–	–	–	–	–	–	–	–	–
C[C@H](NCc1ccc(OCc2cccc(F)c2)cc1)C(N)=O [NW-1015, (S)-(+)-2-[4-(3-fluorobenzyloxy)benzylamino]-propanamide]	–	–	–	–	–	long lasting i.v. activity reducing the evoked CBF up to 60 min after administration	15.0 ± 1.8 %	22.0 ± 3.8 %	20.6 ± 6.2 %	4.0 ± 6.3%	25.2 ± 2.6%	35.5 ± 6.5 %	34.7 ± 1.9 %	27.1 ± 3.6%	% Inhibition of the CBF response (dose 1 mg/kg, 5 min after administration): 25.6 ± 2.9%; % Inhibition of the CBF response (dose 1 mg/kg, 15 min after administration): 25.8 ± 2.7%; % Inhibition of the CBF response (dose 1 mg/kg, 30 min after administration): 36.6 ± 4.7 %; % Inhibition of the CBF response (dose 1 mg/kg, 60 min after administration): 15.7 ± 9.8%
C[C@H](NCc1ccc(OCc2ccccc2F)cc1)C(N)=O [NW-1029, (S)-(+)-2-[4-(2-fluorobenzyloxy)benzylamino]-propanamide]	–	–	–	–	–	reduced the evoked CBF compared to the vehicle up to 60 min post administration	–	–	–	–	15.5 ± 3.7%	20.8 ± 3.5%	27.8 ± 3.9 %	30.6 ± 2.8%	% Inhibition of the CBF response (dose 10 mg/kg, 5 min after administration): 23.9 ± 3.9%; % Inhibition of the CBF response (dose 10 mg/kg, 15 min after administration): 34.9 ± 8.2 %; % Inhibition of the CBF response (dose 10 mg/kg, 30 min after administration): 35.3 ± 2.6 %; % Inhibition of the CBF response (dose 10 mg/kg, 60 min after administration): 35.7 ± 3.9 %
C[C@H](NCc1ccc(OCc2cccc(Cl)c2)cc1)C(N)=O [NW-1039, (S)-(+)-2-[4-(3-chlorobenzyloxy)benzylamino]-propanamide]	–	–	–	–	–	produced a decrease of the evoked CBF response compared to the vehicle group	24.2 ± 6.2%	31.3 ± 6.2 %	32.1 ± 8.1 %	36.2 ± 9.1 %	45.0 ± 6.3 %	41.7 ± 1.8 %	38.1 ± 2.6 %	20.9 ± 9.4%	–
CC(C)(NCc1ccc(OCc2ccccc2F)cc1)C(N)=O [NW-1050, 2-(4-(2-fluorobenzyloxy)benzylamino)-2-methyl-propanamide, reference compound]	completely inactive	1.2 ± 0.3%	1.8 ± 0.6%	1.7 ± 0.8%	0.9 ± 0.1%	–	–	–	–	–	–	–	–	–	–
CC(C)(NCc1ccc(OCc2ccc(F)cc2)cc1)C(N)=O [NW-1055, 2-(4-(4-fluorobenzyloxy)benzylamino)-2-methyl-propanamide, reference compound]	light inhibition of the evoked CBF, which however did not reach a statistically significant difference	6.9 ± 4.2%	3.4 ± 3.2%	11.3 ± 2.0%	14.0 ± 4.0%	–	–	–	–	–	–	–	–	–	–
